Legend:
Test in all cases: relative viability (nuclei count vs DMSO), 5 days (fraction); higher = more cells survive
[1] = tested on: 201T
Procedure, shortened: (§1)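 Lung cancer cell lines were pin-tool dosed in 1536-well plates on the day after seeding, with either a lone drug or a fixed anchor-drug dose plus five library-drug doses (not always all listed) in √10 steps. Nuclei were counted on 4× images after 5 days. Relative viability is the ratio of treated-well to vehicle-well nuclei counts, with each value a median of duplicate plates.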

[2] = tested on: COR-L23
Procedure, shortened: as §1

[3] = tested on: ChaGo-K-1
Procedure, shortened: as §1

[4] = tested on: HARA
Procedure, shortened: as §1

[5] = tested on: HCC-15
Procedure, shortened: as §1

[6] = tested on: HCC-366
Procedure, shortened: as §1

[7] = tested on: HCC-78
Procedure, shortened: as §1

[8] = tested on: LCLC-103H
Procedure, shortened: as §1

[9] = tested on: LCLC-97TM1
Procedure, shortened: as §1

[10] = tested on: LOU-NH91
Procedure, shortened: as §1

[11] = tested on: NCI-H1355
Procedure, shortened: as §1

[12] = tested on: NCI-H1734
Procedure, shortened: as §1

[13] = tested on: NCI-H1792
Procedure, shortened: as §1

[14] = tested on: NCI-H2009
Procedure, shortened: as §1

[15] = tested on: NCI-H2126
Procedure, shortened: as §1

[16] = tested on: NCI-H441
Procedure, shortened: as §1

[17] = tested on: NCI-H460
Procedure, shortened: as §1

[18] = tested on: NCI-H596
Procedure, shortened: as §1

[19] = tested on: NCI-H647
Procedure, shortened: as §1

[20] = tested on: NCI-H650
Procedure, shortened: as §1

[21] = tested on: PC-14
Procedure, shortened: as §1

[22] = tested on: SW 900
Procedure, shortened: as §1

**Q.** Which results are given for `COCC1(CO)C(=O)C2CCN1CC2` (configuration not stated) [PRIMA-1MET] + Nc1nc2[nH]cc(CCc3ccc(C(=O)N[C@@H](CCC(=O)O)C(=O)O)cc3)c2c(=O)[nH]1 [Pemetrexed] (partner 0.2 µM)?
**A.** relative viability ([1]; first compound 0.2 µM): 0.302; relative viability ([1]; first compound 0.6325 µM): 0.339; relative viability ([1]; first compound 2 µM): 0.332; relative viability ([1]; first compound 6.325 µM): 0.346; relative viability ([1]; first compound 20 µM): 0.328; relative viability ([2]; first compound 0.2 µM): 0.184; relative viability ([2]; first compound 0.6325 µM): 0.199; relative viability ([2]; first compound 2 µM): 0.191; relative viability ([2]; first compound 6.325 µM): 0.192; relative viability ([2]; first compound 20 µM): 0.0784; relative viability ([3]; first compound 0.2 µM): 0.249; relative viability ([3]; first compound 0.6325 µM): 0.261; relative viability ([3]; first compound 2 µM): 0.26; relative viability ([3]; first compound 6.325 µM): 0.247; relative viability ([3]; first compound 20 µM): 0.263; relative viability ([4]; first compound 0.2 µM): 0.278; relative viability ([4]; first compound 0.6325 µM): 0.232; relative viability ([4]; first compound 2 µM): 0.209; relative viability ([4]; first compound 6.325 µM): 0.243; relative viability ([4]; first compound 20 µM): 0.247; relative viability ([5]; first compound 0.2 µM): 0.213; relative viability ([5]; first compound 0.6325 µM): 0.214; relative viability ([5]; first compound 2 µM): 0.212; relative viability ([5]; first compound 6.325 µM): 0.21; relative viability ([5]; first compound 20 µM): 0.217; relative viability ([6]; first compound 0.2 µM): 0.187; relative viability ([6]; first compound 0.6325 µM): 0.203; relative viability ([6]; first compound 2 µM): 0.156; relative viability ([6]; first compound 6.325 µM): 0.184; relative viability ([6]; first compound 20 µM): 0.0889; relative viability ([7]; first compound 0.2 µM): 0.916; relative viability ([7]; first compound 0.6325 µM): 0.886; relative viability ([7]; first compound 2 µM): 0.914; relative viability ([7]; first compound 6.325 µM): 0.832; relative viability ([7]; first compound 20 µM): 0.864; relative viability ([8]; first compound 0.2 µM): 0.45; relative viability ([8]; first compound 0.6325 µM): 0.503; relative viability ([8]; first compound 2 µM): 0.459; relative viability ([8]; first compound 6.325 µM): 0.499; relative viability ([8]; first compound 20 µM): 0.451; relative viability ([9]; first compound 0.2 µM): 0.193; relative viability ([9]; first compound 0.6325 µM): 0.198; relative viability ([9]; first compound 2 µM): 0.182; relative viability ([9]; first compound 6.325 µM): 0.197; relative viability ([9]; first compound 20 µM): 0.21; relative viability ([10]; first compound 0.2 µM): 0.356; relative viability ([10]; first compound 0.6325 µM): 0.367; relative viability ([10]; first compound 2 µM): 0.405; relative viability ([10]; first compound 6.325 µM): 0.4; relative viability ([10]; first compound 20 µM): 0.344; relative viability ([11]; first compound 0.2 µM): 1.02; relative viability ([11]; first compound 0.6325 µM): 0.985; relative viability ([11]; first compound 2 µM): 1; relative viability ([11]; first compound 6.325 µM): 1.01; relative viability ([11]; first compound 20 µM): 1.04; relative viability ([12]; first compound 0.2 µM): 0.403; relative viability ([12]; first compound 0.6325 µM): 0.416; relative viability ([12]; first compound 2 µM): 0.433; relative viability ([12]; first compound 6.325 µM): 0.407; relative viability ([12]; first compound 20 µM): 0.0543; relative viability ([13]; first compound 0.2 µM): 0.713; relative viability ([13]; first compound 6.325 µM): 0.947; relative viability ([13]; first compound 20 µM): 0.676; relative viability ([14]; first compound 0.2 µM): 0.973; relative viability ([14]; first compound 0.6325 µM): 1.03; relative viability ([14]; first compound 2 µM): 1.03; relative viability ([14]; first compound 6.325 µM): 0.96; relative viability ([14]; first compound 20 µM): 0.435; relative viability ([15]; first compound 0.2 µM): 0.657; relative viability ([15]; first compound 0.6325 µM): 0.614; relative viability ([15]; first compound 2 µM): 0.609; relative viability ([15]; first compound 6.325 µM): 0.699; relative viability ([15]; first compound 20 µM): 0.67; relative viability ([16]; first compound 0.2 µM): 0.24; relative viability ([16]; first compound 0.6325 µM): 0.2; relative viability ([16]; first compound 2 µM): 0.271; relative viability ([16]; first compound 6.325 µM): 0.274; relative viability ([16]; first compound 20 µM): 0.204; relative viability ([17]; first compound 0.2 µM): 0.0602; relative viability ([17]; first compound 0.6325 µM): 0.051; relative viability ([17]; first compound 2 µM): 0.0601; relative viability ([17]; first compound 6.325 µM): 0.0553; relative viability ([17]; first compound 20 µM): 0.0386; relative viability ([18]; first compound 0.2 µM): 0.553; relative viability ([18]; first compound 0.6325 µM): 0.481; relative viability ([18]; first compound 2 µM): 0.531; relative viability ([18]; first compound 6.325 µM): 0.495; relative viability ([18]; first compound 20 µM): 0.176; relative viability ([19]; first compound 0.2 µM): 0.19; relative viability ([19]; first compound 0.6325 µM): 0.152; relative viability ([19]; first compound 2 µM): 0.19; relative viability ([19]; first compound 6.325 µM): 0.173; relative viability ([19]; first compound 20 µM): 0.124; relative viability ([20]; first compound 0.2 µM): 1.26; relative viability ([20]; first compound 0.6325 µM): 0.894; relative viability ([20]; first compound 2 µM): 0.884; relative viability ([20]; first compound 6.325 µM): 0.978; relative viability ([20]; first compound 20 µM): 0.263; relative viability ([21]; first compound 0.2 µM): 0.124; relative viability ([21]; first compound 0.6325 µM): 0.148; relative viability ([21]; first compound 2 µM): 0.114; relative viability ([21]; first compound 6.325 µM): 0.148; relative viability ([21]; first compound 20 µM): 0.0292; relative viability ([22]; first compound 0.2 µM): 0.522; relative viability ([22]; first compound 0.6325 µM): 0.282; relative viability ([22]; first compound 6.325 µM): 0.455; relative viability ([22]; first compound 20 µM): 0.0805

From the supplement of paper PMC10307832
